# In BindingDB's records for doi:10.7270/Q2Q52N1X (Vanderbilt Screening Center for GPCRs, Ion Channels and …, 2009):
# Molecular target: T1, Solute carrier family 12 member 5 (Homo sapiens, UniProt Q9H2X9)
# T1 sequence (Q9H2X9 whole entry): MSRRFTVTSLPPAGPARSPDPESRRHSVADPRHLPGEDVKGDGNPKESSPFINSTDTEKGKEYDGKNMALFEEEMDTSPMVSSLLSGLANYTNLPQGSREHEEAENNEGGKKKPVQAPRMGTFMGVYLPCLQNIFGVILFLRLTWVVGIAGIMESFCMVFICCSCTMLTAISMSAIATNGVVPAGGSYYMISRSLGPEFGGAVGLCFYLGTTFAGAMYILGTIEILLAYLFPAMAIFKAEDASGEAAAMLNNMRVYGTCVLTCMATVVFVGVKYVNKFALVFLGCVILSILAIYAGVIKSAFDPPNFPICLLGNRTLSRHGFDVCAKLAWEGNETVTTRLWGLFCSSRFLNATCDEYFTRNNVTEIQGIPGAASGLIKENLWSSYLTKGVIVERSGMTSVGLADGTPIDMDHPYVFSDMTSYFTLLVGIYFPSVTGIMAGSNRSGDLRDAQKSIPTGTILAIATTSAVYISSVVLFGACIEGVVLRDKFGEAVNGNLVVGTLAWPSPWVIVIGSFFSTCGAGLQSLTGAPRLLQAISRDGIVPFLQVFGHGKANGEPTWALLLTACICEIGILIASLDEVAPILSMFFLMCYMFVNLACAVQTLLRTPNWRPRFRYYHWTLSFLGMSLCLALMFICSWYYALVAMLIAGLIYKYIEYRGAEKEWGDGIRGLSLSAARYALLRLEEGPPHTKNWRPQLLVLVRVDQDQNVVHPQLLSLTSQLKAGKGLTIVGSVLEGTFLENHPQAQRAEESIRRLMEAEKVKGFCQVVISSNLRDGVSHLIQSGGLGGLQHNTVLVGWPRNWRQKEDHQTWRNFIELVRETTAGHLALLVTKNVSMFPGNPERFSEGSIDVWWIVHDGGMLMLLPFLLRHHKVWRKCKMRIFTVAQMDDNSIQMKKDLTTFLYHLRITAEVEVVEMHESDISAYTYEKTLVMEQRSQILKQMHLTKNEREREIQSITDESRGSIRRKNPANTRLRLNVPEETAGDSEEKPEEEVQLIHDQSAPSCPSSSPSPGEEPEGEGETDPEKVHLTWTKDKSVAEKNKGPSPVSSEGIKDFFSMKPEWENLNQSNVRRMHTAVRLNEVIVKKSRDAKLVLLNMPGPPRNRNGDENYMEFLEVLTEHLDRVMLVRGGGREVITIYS
# Experiment: KCC2 modulator potency by thallium flux, dose response, cell-based, HEK293 KCC2, FluoZin-2 fluorescence (AID 1736)
# Details: not given
row,EC50,SMILES
1,0.291 µM,Cc1onc(-c2ccccc2Cl)c1C(=O)NC(=S)Nc1ccc(C(C)C)cc1 [3-(2-chlorophenyl)-5-methyl-N-(p-cumenylthiocarbamoyl)isoxazole-4-carboxamide]
2,8.63 µM,O=C(NCCCCc1ccccc1)C1CC(c2ccccc2[N+](=O)[O-])=NO1 (stereo unspecified) [3-(2-nitrophenyl)-N-(4-phenylbutyl)-2-isoxazoline-5-carboxamide]
3,3.19 µM,"O=S1(=O)N=C(N2CCN(Cc3ccccc3)CC2)c2ccccc21 [3-(4-Benzyl-piperazin-1-yl)-benzo[d]isothiazole 1,1-dioxide]"
4,6.07 µM,"O=C(Cn1c(-c2ccc(Cl)cc2)noc1=O)N1CCN(c2ccccc2F)CC1 [3-(4-Chloro-phenyl)-4-{2-[4-(2-fluoro-phenyl)-piperazin-1-yl]-2-oxo-ethyl}-4H-[1,2,4]oxadiazol-5-one]"
5,1.08 µM,CCN(CC)c1ccc2c(C)c(-c3ccc(N)cc3)c(=O)oc2c1 [3-(4-aminophenyl)-7-(diethylamino)-4-methyl-1-benzopyran-2-one]
6,4.4 µM,"Cc1ccc(OCCC(=O)OCC(=O)N2c3ccccc3CC2C)cc1 (stereo unspecified) [3-(4-methylphenoxy)propanoic acid [2-(2-methyl-2,3-dihydroindol-1-yl)-2-oxoethyl] ester]"
7,0.619 µM,O=C(O)CCn1c(SCc2cccc3ccccc23)nc2ccccc21 [3-[2-(1-naphthalenylmethylthio)-1-benzimidazolyl]propanoic acid]
8,11.1 µM,"O=C(O)CCc1cc(I)c(Oc2ccc(O)c(I)c2)c(I)c1 [3-[4-(4-hydroxy-3-iodophenoxy)-3,5-diiodophenyl]propanoic acid]"
9,53.1 µM,"O=C(O)CCN(Cc1ccccc1)S(=O)(=O)c1c(Cl)cccc1Cl [3-[(2,6-dichlorophenyl)sulfonyl-(phenylmethyl)amino]propanoic acid]"
10,0.599 µM,O=C(OCC(=O)N1CCN(C(=O)c2ccco2)CC1)c1sc2ccccc2c1Cl [3-chloro-1-benzothiophene-2-carboxylic acid [2-[4-[2-furanyl(oxo)methyl]-1-piperazinyl]-2-oxoethyl] ester]
11,7.84 µM,COCCNS(=O)(=O)c1ccc(-c2ccc(Cl)cc2)cc1 [4'-chloro-N-(2-methoxyethyl)-4-biphenylsulfonamide]
12,12.2 µM,"O=C(c1cc(COc2c(F)cccc2F)on1)N1CCC(c2ccncc2)CC1 [4-[1-({5-[(2,6-difluorophenoxy)methyl]isoxazol-3-yl}carbonyl)piperidin-4-yl]pyridine]"
13,14.3 µM,"Cc1n[nH]c(O)c1C(c1ccc(-c2ccc(F)cc2)o1)c1c(C)n[nH]c1O [4-[[5-(4-fluorophenyl)furan-2-yl]-(3-methyl-5-oxo-1,2-dihydropyrazol-4-yl)methyl]-5-methyl-1,2-dihydropyrazol-3-one]"

# Further lines, the molecule ahead of its results:
row,SMILES,EC50
1,O=C(CCSCCc1ccccn1)Nc1ccc(Cc2ccncc2)cc1 [3-(2-pyridin-2-ylethylsulfanyl)-N-[4-(pyridin-4-ylmethyl)phenyl]propanamide],8.25 µM
2,CCOc1ccc(C(CC(=O)O)NC(=O)C(Sc2ccccc2)c2ccccc2)cc1 (stereo unspecified) [3-(4-ethoxyphenyl)-3-[(2-phenyl-2-phenylsulfanyl-ethanoyl)amino]propanoic acid],13.6 µM
3,CS/C(=N\Cc1ccc(F)cc1)NS(=O)(=O)c1cccs1 [3-(4-fluorobenzyl)-2-methyl-1-(2-thienylsulfonyl)isothiourea],0.89 µM
4,"O=C(Cn1cnc2c(nnn2Cc2ccc(F)cc2)c1=O)N1CCN(c2ccccc2)CC1 [3-(4-fluorobenzyl)-6-[2-keto-2-(4-phenylpiperazino)ethyl]triazolo[4,5-d]pyrimidin-7-one]",8.12 µM
5,"CC(NC(=O)CCc1nnc(-c2ccc(-c3ccccc3)cc2)o1)c1nccs1 (stereo unspecified) [3-(5-biphenyl-4-yl-1,3,4-oxadiazol-2-yl)-N-[1-(1,3-thiazol-2-yl)ethyl]propanamide]",4.79 µM
6,"COc1cc(OC)c(C2=NOC(C(=O)NCCc3ccccc3)C2)cc1Cl (stereo unspecified) [3-(5-chloranyl-2,4-dimethoxy-phenyl)-N-(2-phenylethyl)-4,5-dihydro-1,2-oxazole-5-carboxamide]",6.25 µM
7,"CCOc1ccc2nc(Sc3cc(O)n(-c4cccc(OC)c4)c3O)sc2c1 [3-(6-Ethoxy-benzothiazol-2-ylsulfanyl)-1-(3-methoxy-phenyl)-pyrrolidine-2,5-dione]",9.38 µM
8,COC(=O)c1sccc1NC(=S)OC [3-(methoxycarbothioylamino)thiophene-2-carboxylic acid methyl ester],3.94 µM
9,O=C(Nc1ccc(Cc2ccncc2)cc1)c1cccc([N+](=O)[O-])c1 [3-Nitro-N-(4-pyridin-4-ylmethyl-phenyl)-benzamide],9.28 µM
10,"O=C(Cn1nnc2c(cnn2-c2ccccc2)c1=O)N1CCN(c2ccccc2F)CC1 [3-[2-[4-(2-fluorophenyl)-1-piperazinyl]-2-oxoethyl]-7-phenyl-4-pyrazolo[3,4-d]triazinone]",15.6 µM
11,Cc1ccc(S(=O)(=O)N(CCC(=O)O)Cc2ccc(Cl)cc2)cc1 [3-[(4-chlorobenzyl)-tosyl-amino]propionic acid],0.356 µM
12,CCOc1cc(S(=O)(=O)NCc2ccccc2)ccc1F [3-ethoxy-4-fluoranyl-N-(phenylmethyl)benzenesulfonamide],4.68 µM
13,"Cc1c(N=C2Nc3cccc4cccc2c34)c(=O)n(-c2ccccc2)n1C [4-(2-benzo[cd]indolylamino)-1,5-dimethyl-2-phenyl-3-pyrazolone]",1.89 µM
14,"O=C(OCC(=O)N1CCc2ccccc2C1)c1ccc(N2CCOCC2)c([N+](=O)[O-])c1 [4-(4-morpholinyl)-3-nitrobenzoic acid [2-(3,4-dihydro-1H-isoquinolin-2-yl)-2-oxoethyl] ester]",5.9 µM
15,O=C(NC(=S)NNC(=O)c1cnccn1)c1ccc(Cl)cc1 [4-Chloro-N-[N'-(pyrazine-2-carbonyl)-hydrazinocarbothioyl]-benzamide],13 µM
16,"COc1ccc(-c2cc(CCCC(=O)NCCc3ccccc3)no2)cc1 [4-[5-(4-methoxyphenyl)-1,2-oxazol-3-yl]-N-(2-phenylethyl)butanamide]",1.84 µM
17,CCOc1cc(Br)ccc1S(=O)(=O)NCc1ccccc1 [4-bromanyl-2-ethoxy-N-(phenylmethyl)benzenesulfonamide],1.36 µM
18,"Cc1nn(-c2ccc(F)cc2)c(C)c1NS(=O)(=O)c1ccc(Cl)cc1 [4-chloranyl-N-[1-(4-fluorophenyl)-3,5-dimethyl-pyrazol-4-yl]benzenesulfonamide]",112 µM
19,O=S(=O)(Nc1nc2ccccc2nc1N1CCN(c2ccccn2)CC1)c1ccc(Cl)cc1 [4-chloranyl-N-[3-(4-pyridin-2-ylpiperazin-1-yl)quinoxalin-2-yl]benzenesulfonamide],9.37 µM
20,"COc1ccc(S(=O)(=O)N(C)CC(=O)N2CCN(Cc3ccccc3)CC2)cc1C [4-methoxy-N,3-dimethyl-N-[2-oxidanylidene-2-[4-(phenylmethyl)piperazin-1-yl]ethyl]benzenesulfonamide]",3.52 µM

# Same assay, conditions: inactive by the depositor's call
row,EC50,SMILES
1,101 µM,O=C(Nc1ccc(Cc2ccncc2)cc1)c1ccc(N2CCOCC2)c([N+](=O)[O-])c1 [4-(4-morpholinyl)-3-nitro-N-[4-(4-pyridinylmethyl)phenyl]benzamide]
2,9.05 µM,"CCC(C)(C)n1nnnc1C(c1ccc(O)c(OC)c1)N1CCN(c2nc3ccccc3s2)CC1 (stereo unspecified) [4-[(1-tert-amyltetrazol-5-yl)-[4-(1,3-benzothiazol-2-yl)piperazino]methyl]-2-methoxy-phenol]"

# Continued, molecule first:
row,SMILES,EC50
1,"Cc1ccc(C=Nn2c(-c3ccc(Cl)cc3)n[nH]c2=S)s1 [3-(4-chlorophenyl)-4-[(5-methyl-2-thiophenyl)methylideneamino]-1H-1,2,4-triazole-5-thione]",188 µM
2,Cc1cc(Cl)ccc1Oc1ccccc1C(=O)CC#N [3-[2-(4-chloranyl-2-methyl-phenoxy)phenyl]-3-oxidanylidene-propanenitrile],233 µM
3,COc1ccc(S(=O)(=O)N(CCC(=O)O)Cc2ccccc2)cc1 [3-[(4-methoxyphenyl)sulfonyl-(phenylmethyl)amino]propanoic acid],6.36 µM
4,"O=c1cc(CSc2nnnn2-c2ccccc2)nc2scc(-c3ccccc3)n12 [3-phenyl-7-[(1-phenyl-1,2,3,4-tetrazol-5-yl)sulfanylmethyl]-[1,3]thiazolo[3,2-a]pyrimidin-5-one]",4610 µM
5,"O=C(Cn1c(-c2ccccc2)noc1=O)N1CCC(Cc2ccccc2)CC1 [4-[2-(4-benzylpiperidin-1-yl)-2-oxoethyl]-3-phenyl-1,2,4-oxadiazol-5-one]",39.6 µM
6,"CC(C)c1onc(C(=O)NCCc2ccccc2)c1[N+](=O)[O-] [4-nitro-N-(2-phenylethyl)-5-propan-2-yl-1,2-oxazole-3-carboxamide]",20.6 µM
